“And” between values parts separate entries of the source, which are not always exact repeats. Equal values may be shown once.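 Compound exposure: 48 hours, 5 concentrations, 96-well plates. At the GI50, growth is halved. At the TGI there is no net growth.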
Key:
Assay in all cases: NCI-60 cell line screen, 48 h
[1] = test system: A498 renal
[2] = test system: UACC-62 melanoma
[3] = test system: U251 CNS
[4] = test system: UACC-257 melanoma
[5] = test system: SNB-75 CNS
[6] = test system: SN12C renal
[7] = test system: MALME-3M melanoma
[8] = test system: A549 NSCLC
[9] = test system: OVCAR-4 ovarian
[10] = test system: MCF7 breast

| Compound | TGI [1] | TGI [2] | TGI [3] | TGI [4] | TGI [5] | TGI [6] [µM] | TGI [7] | TGI [8] [µM] | TGI [9] | GI50 [1] [µM] | GI50 [2] | GI50 [3] | GI50 [4] | GI50 [5] | GI50 [6] | GI50 [7] | GI50 [10] | TGI [10] [µM] | GI50 [8] | GI50 [9] |
| --- | --- | --- | --- | --- | --- | --- | --- | --- | --- | --- | --- | --- | --- | --- | --- | --- | --- | --- | --- | --- |
| O=C(O)C(C(=O)C(=O)C(C(=O)O)c1ccc(Cl)cc1)c1ccc(Cl)cc1 (configuration not stated) | 16.6 µM | 3.91 µM | 12 µM | 11.4 µM | 8.89 µM | 10.8 | 10.4 µM | 11.2 | 6.96 µM | – | – | – | – | – | – | – | – | – | – | – |
| CCCCN=C(NC#N)N(Cc1ccccc1)Cc1ccccc1 | 63.7 µM | 34.8 µM | 81.3 µM | 64.9 µM | > 100 µM | 82 | > 100 µM | > 100 | > 100 µM | – | – | – | – | – | – | – | – | – | – | – |
| O=c1cc(-c2ccccc2)nc(/C=C(\O)c2ccncc2)n1-c1ccccc1 | > 100 µM | > 100 µM | > 100 µM | > 100 µM | > 100 µM | > 100 | > 100 µM | > 100 | > 100 µM | – | – | – | – | – | – | – | – | – | – | – |
| CCCCOC(=O)c1ccc(NC(=O)CCl)cc1 | 28.6 µM | 13.3 µM | 3.1 µM | 8.66 µM | 5.96 µM | 3.36 | 3.68 µM | 22.8 | – | 14.1 | 2.74 µM | 1.71 µM | 3.05 µM | 1.86 µM | 1.56 µM | 1.76 µM | 2.35 µM | 10 | 10.2 µM | – |
| CN1CCN(C(=O)c2c(NC(=O)NS(=O)(=O)c3ccccc3)sc3c2CCCCC3)CC1 | 65.8 µM | 60 µM | – | > 100 µM | – | 63.8 | – | > 100 | – | 28.8 | 23 µM | – | 35.6 µM | – | 25 µM | – | 52.7 µM | > 100 | 65.7 µM | – |
| NC(=O)C(=Cc1ccc(CP(=O)(O)O)cc1)C(N)=O | > 100 µM | > 100 µM | > 100 µM | > 100 µM | > 100 µM | > 100 | > 100 µM | > 100 | > 100 µM | – | – | – | – | – | – | – | – | – | – | – |
| CN(C)C(=S)/N=c1\ss/c(=N\C(=S)N(C)C)n1-c1ccc(Cl)cc1 | > 100 µM | > 100 µM | > 100 µM | > 100 µM | > 100 µM | > 100 | – | > 100 | – | – | – | – | – | – | – | – | – | – | – | – |
| NC(CC(=O)Nc1ccc(Cl)cc1)=Nc1ccccc1 | > 100 µM | > 100 µM | > 100 µM | > 100 µM | > 100 µM | > 100 | > 100 µM | > 100 | > 100 µM | – | – | – | – | – | – | – | – | – | – | – |
| COC(=O)c1ccc(NC(=O)c2cc(OC)c(OC)c(OC)c2)cc1 | > 100 µM | > 100 µM | – | – | > 100 µM | – | > 100 µM | > 100 | > 100 µM | – | – | – | – | – | – | – | – | – | – | – |
| CC(C)N1CCC2(CC1)NNc1ncccc1-n1cccc12 | – | – | > 100 µM | > 100 µM | > 100 µM | > 100 | > 100 µM | > 100 | > 100 µM | – | – | – | – | – | – | – | – | – | – | – |
| CC(=O)OC(C)(C)/C=C/C(=O)[C@](C)(O)[C@H]1[C@H](O)C[C@@]2(C)[C@@H]3CC=C4[C@@H](C[C@H](O)C(=O)C4(C)C)[C@]3(CO)C(=O)C[C@]12C | 0.431 µM and 0.213 µM | 15.8 µM | 0.592 µM and 1.52 µM | 0.943 µM and 6.36 µM | 0.375 µM and 0.211 µM | 17.4 | 0.936 µM and 4.69 µM | 22.6 | 0.835 µM | 0.0791 | 0.127 µM | 0.267 µM | 0.284 µM | 0.0529 µM | 0.368 µM | 0.0838 µM | – | – | 0.273 µM | 0.295 µM |
| Cn1c(/C=C(\C#N)c2cccc(C(F)(F)F)c2)nc2c(N3CCOCC3)nc(Cl)nc21 | 2.72 µM | 2.28 µM | 2.73 µM | 2.89 µM | 1.15 µM | 2.14 | 2.79 µM | 3.3 | 2.41 µM | 1.38 | 0.973 µM | 1.32 µM | 1.37 µM | 0.159 µM | 0.829 µM | 1.39 µM | – | – | 1.31 µM | 1 µM |
| CCOC(=O)c1cc2c(cn1)[nH]c1cccc(N)c12 | – | > 100 µM | > 100 µM | > 100 µM | > 100 µM | > 100 | > 100 µM | > 100 | > 100 µM | – | – | – | – | – | – | – | – | – | – | – |
| Nc1nc(NC2C=C(CO)C(O)C2O)c([N+](=O)[O-])c(=O)[nH]1 (configuration not stated) | > 100 µM | > 100 µM | > 100 µM | > 100 µM | > 100 µM | > 100 | > 100 µM | > 100 | > 100 µM | – | – | – | – | – | – | – | – | – | – | – |
| O=c1cc(-c2ccccc2)[nH]c2c(Cl)cccc12 | 91.6 µM | 67.3 µM | > 100 µM | > 100 µM | 54.8 µM | > 100 | > 100 µM | > 100 | 66.3 µM | – | – | – | – | – | – | – | – | – | – | – |
| Cc1ccc(C(=O)/C(=C\c2ccc([N+](=O)[O-])cc2)S(=O)Cc2ccc(F)cc2)cc1 (configuration not stated) | 6.04 µM | 2.97 µM | 3.22 µM | 3.69 µM | 3.1 µM | 3.42 | 3.33 µM | 8.8 | 3.54 µM | 2.48 | 1.53 µM | 1.66 µM | 1.93 µM | 1.47 µM | 1.7 µM | 1.57 µM | – | – | 2.86 µM | 1.73 µM |
| CN1CCC(C(=O)Nc2n[nH]c3nc(-c4ccc(O)cc4)c(Br)cc23)CC1 | – | 6.87 µM and 8.81 µM | > 25 µM | 12.3 µM and 14.6 µM | 8.38 µM and 7.52 µM | > 25 | 11.1 µM and 11.7 µM | > 25 | > 12.4 µM and 6.27 µM | – | 2.85 µM and 3.83 µM | 0.661 µM and 0.848 µM | 4.3 µM and 6.17 µM | 0.207 µM and 0.537 µM | 1.76 µM and 4.18 µM | 3.56 µM and 4.97 µM | 0.557 µM and 0.724 µM | > 22 | 5.72 µM and 7.38 µM | 0.986 µM and 1.17 µM |
| CCOc1ccccc1N1C(=O)C(=O)C(c2nc3ccccc3o2)/C(=N\N)C1=O (configuration not stated) | > 100 µM | > 100 µM | > 100 µM | > 100 µM | > 100 µM | > 100 | > 100 µM | > 100 | > 100 µM | – | – | – | – | – | – | – | – | – | – | – |

— PubChem BioAssay (NCI)
